Experiment [1] relates to cerebellar granule neurons.
Experiment [2] deals with cerebellar granule neurons. The format is cell-based.
Experiment [3] deals with TrkB receptor on cultured cerebellar granule neurons.

“And” between values parts separate entries of the source, which are not always exact repeats. Identical values can stand only once. Where a SMILES comes first, the peptide text is derived from it. Bridges are numbered along the chain shown (N, C = ends).

The term IC50 denotes the concentration at which inhibition is half-maximal.

As for `CSCC[C@@H]1NC(=O)CNC(=O)[C@H](CC(N)=O)NC(=O)[C@H](CC(N)=O)NC(=O)[C@H](CCSC)NC(=O)[C@H](Cc2c[nH]cn2)NC(=O)[C@H]([C@@H](C)O)NC(=O)[C@@H]2CCCN2C(=O)[C@H](CC(N)=O)NC(=O)[C@H](CC(=O)O)NC(=O)[C@H](CC(C)C)NC(=O)[C@H](CCC(N)=O)NC(=O)[C@H](CC(C)C)NC(=O)[C@@H](NC(=O)CN)CSSC[C@@H](C(=O)N[C@@H](CC(N)=O)C(=O)N[C@@H](CC(N)=O)C(=O)NCC(=O)O)NC(=O)[C@H](Cc2c[nH]cn2)NC(=O)[C@H]([C@@H](C)O)NC(=O)[C@@H]2CCCN2C(=O)[C@H](CC(N)=O)NC(=O)[C@H](CC(=O)O)NC(=O)[C@H](CC(C)C)NC(=O)[C@H](CCC(N)=O)NC(=O)[C@H](CC(C)C)NC1=O` [d5 peptide] (H-GCLQLDNPTHMNNGMLQLDNPTHCNNG-OH; disulfide 2-24), the “competition with the Hc-TeNT fragment for binding to cell membrane” value in experiment [1] was “capable to compete”. Moreover, in experiment [1] (3 h), the half-inhibitory concentration (IC50) came out at 108 µM and the “IC50 (concentration of unlabeled competitor necessary to displace 50% of specifically bound Hc-TeNT)” value is 317.3 µg/mL. In experiment [2], the “internalization of Hc-TeNT fragment (area occupied by Hc-TeNT)” value is given as “seems not to affect”, the “percentage of Hc-TeNT in colocalization with TrkB” value was “about 44%” and the “percentage of TrkB in co-localization with Hc-TeNT” value came out at 51%.
For the compound “BDNF (from UniProt P23560 129-247) (ligand)”, the IC50 in experiment [3] was 4.2 nM and 0.06 µg/mL.
